Holding throughout (format): cell-based
Assay [1] deals with HIV-1RF chronically infected Jurkat cells. Briefly: Virus precipitation with MAbs after β-cyclodextrin treatment of infected cells. The procedure: Infected Jurkat cells (3×10^6) were treated with 20 mM hydroxypropyl-β-cyclodextrin (2-OH-βCD; Cyclodextrin Technologies Development, Inc.; Gainesville Fla.) in 3 ml of cRPMI or with cRPMI alone for 1 hr at 37° C. Cells were washed with PBS, then allowed to produce virus in 3 ml of cRPMI at 37° C. for 2 hr. Viral supernatants were clarified through a 0.45 Tm filter, and […] of MAb (10 mg/ml) in 5% NGS-PBS, and the mixture was incubated for 1 hr on ice. Pansorbin (SaC) (50 mg; Calbiochem; San Diego Calif.) was added to the solution and incubated for 20 min on ice. Complexes were washed sequentially with 10X and 1X PBS. Precipitated virus was lysed with […] of 1% Triton X-100 in cRPMI. Lysates were diluted, and p24 was quantitated by standard p24 ELISA.
The effects of 2-OH-βCD, a cellular cholesterol efflux inducing molecule, on the incorporation of host molecules into virions also was examined. By removing cholesterol, 2-OH-βCD is believed to partially perturb organized lipid rafts, resulting in dispersal of their components (Ilangumaran and Hoessli, Biochem. J. 335:433-440, 1998).

The next assay relates to HIV-infected H9 cells. The assay can be described thus: Syncytium assay with HIV-1 infected cells. To be noted: for Syncytia (/HPF): with HIV-infected H9 cells. The procedure:
(§1) Syncytium assays were carried out essentially as previously described (Hildreth and Orentas, supra, 1989). Briefly, cell lines or PHA blasts were treated with 20 mM 2-OH-βCD in RPMI 1640 or medium alone for 1 hr at 37° C. before washing twice with PBS. The treated cells were then mixed with HIV-1 infected cells, each at density of 2×10^6/ml, in cRPMI and incubated at 37° C. Syncytia were scored and photographed 3 to 6 hr after mixing. For free-virus mediated syncytium assays (“fusion from without”), HIV-1RF from infected PM1 culture supernatants were clarified by 0.45 Tm filtration (p24 concentration greater than 500 ng/ml). 2-OH-βCD-treated and non-treated cell lines were added to the virus preparations and incubated at 37° C. for 3 hr before counting syncytia.
CD4+SupTl T cells formed numerous large syncytia within 3 hr after the addition of HIV-1MN-infected H9 cells. […] No syncytia were apparent in this culture for more than 15 hr, which can reflect the recovery time for cholesterol in the βCD treated T cells. 2-OH-βCD was washed out after the 1 hr treatment and was not present during the co-cultivation step. As such, the effects are not a result of a steric blockade by 2-OH-βCD, which can bind to cells.
The effect of βCD treatment on HIV-induced fusion of several other cell lines also was examined. Four CD4+, CXCR4+cell lines, SupT1, H9, PM1, and MT2, were treated with 2-OH-βCD and tested for syncytium formation with HIV-1-infected cells.

The test system of assay [2] is HIV-1RF. Briefly: Free virus binding assay (transfer of class II MHC to Jurkat cells). On the procedure: Virus binding was measured through host cell antigen transfer as described (Liao et al., supra, 2000). Briefly, Jurkat cells (1×10^6) were washed with serum free RPMI-1640 medium (iRPMI) before incubation in 20 mM 2-OH-βCD in iRPMI or iRPMI alone for 1 hr at 37° C. Cells were then washed twice with iRPMI before adding 100 Tl of clarified HIV-1 supernatant (>10 ng/ml of p24 from PM1 cells) for 1 hr on ice. Excess virus was removed by washing twice with iRPMI. MAbs were then added at 20 ug/ml in 5% NGS/PBS and allowed to incubate for 1 h on ice before washing with iRPMI. FITC-GAM (10 ug/ml) was then added for 45 min on ice before washing with iRPMI. Cells were then fixed with 2% paraformaldehyde followed by analysis on an EPICS Profile II flow cytometer.
The possibility that βCD treatment affected virus binding or interactions between gp120 and CD4 or CRs was examined. In order to measure virus binding to cells, a flow cytometry assay was used that measures the transfer of host cell class II MHC proteins to class II MHC-negative cells by HIV virions, which incorporate large numbers of these proteins into their lipid envelopes. […] Class II MHC-negative Jurkat cells were used as target cells in the HIV binding assay. As a positive control for flow cytometry analysis, class I MHC molecules were probed on the Jurkat cells, which were stained equally well with MAb against this protein before and after 2-OH-βCD treatment (Table 3). When HIV-1RF from class II MHC-positive PM1 cells was added to untreated Jurkat cells, class II MHC MAb mean channel fluorescence increased from 1.0 to 7.8 relative fluorescence units, while the percentage of positive cells increased from 3.0% to 55.4% (Table 3). 2-OH-βCD treatment of the cells reduced virus binding by 70%, as determined by mean channel fluorescence of the anti-class II MHC mAb.
HIV binding to Jurkat cells (control and 2-OH-βCD-treated) was measured by transfer of class II MHC molecules. MAbs used were MHM.5 (anti-class I MHC), positive control; MHM.33 (anti-class II MHC). “MCF” indicates mean channel fluorescence. “% Pos” indicates percent positive cells. “ND” indicates not determined.

Assay [3] deals with HIV-1RF. The assay can be described thus: Free-virus mediated syncytium assay (fusion from without). To be noted: MT2, SupT1, PM1; HIV-1RF >500 ng/ml p24, 3 hr at 37° C. On the procedure:
as §1
The effect of cholesterol depletion on virus-cell fusion (“fusion from without”) was also determined.

The mark [4] stands for this setting: infected Jurkat cells treated with 20 mM for 1 hr at 37° C, P<0.05.

As to “2-hydroxypropyl-β-cyclodextrin [2-OH-βCD]”, in assay [1] (infected Jurkat cells after treatment), the “Overall cellular release of p24” value was “increased”. In assay [1] (infected Jurkat cells treated with 20 mM for 1 hr at 37° C), the “CD45 capture of HIV-1” value is given as “remained mostly unaffected”. In assay [1] (setting [4]), the “Capture of HIV-1 by MAb against CD59, percentage of total p24” value is reported as “decreased substantially” and the “Capture of HIV-1 by MAb against gp41, percentage of total p24” value is listed as “decreased substantially”. Further, the “Decrease in capture of HIV-1 through Thy-1” value in assay [1] (infected Jurkat cells treated with 20 mM for 1 hr at 37° C, P=0.08) is listed as “not statistically significant”. Further, the “Syncytium formation of SupT1 cells with HIV-1MN-infected H9 cells” value in the assay with HIV-infected H9 cells (1 hr treatment, washed out before co-cultivation) is recorded as “completely inhibited”. Besides, the “Syncytia (/HPF)” value with HIV-infected H9 cells (H9 cells treated with 20 mM) is 0 /HPF. Moreover, the “Syncytia (/HPF)” value in the assay with HIV-infected H9 cells (MT2 cells treated with 20 mM) is 0 /HPF. The “Syncytia (/HPF)” value with HIV-infected H9 cells (PM1 cells treated with 20 mM) was 0 /HPF. Also, the “Syncytium formation with HIV-1-infected cells” value in the assay on HIV-infected H9 cells (SupT1, H9, PM1 and MT2 cell lines, in each case) is reported as “completely blocked”. In the assay on HIV-infected H9 cells (SupT1 cells treated with 20 mM), the “Syncytia (/HPF)” value is listed as 0 /HPF. Also, the “Time without apparent syncytia” value in the assay with HIV-infected H9 cells (treated SupT1 cells with HIV-1MN-infected H9 cells) is “more than 15 hr”. Besides, the “Reduction of virus binding, by mean channel fluorescence of the anti-class II MHC mAb” value in the assay on HIV-1RF [2] (Jurkat cells treated with 20 mM) was 70%. Also, in the assay with HIV-1RF [2] (treated Jurkat cells, HIVRF), the “MHM5 (anti-class I MHC) % Pos” value is listed as 100%, the “MHM5 (anti-class I MHC) MCF” value came to 167.8 MCF, the “MHM33 (anti-class II MHC) % Pos” value came out at 26.0% and the “MHM33 (anti-class II MHC) MCF” value came out at 2.4 MCF. For the same substance, in the assay with HIV-1RF [2] (treated Jurkat cells, no virus), the “IgG1 % Pos” value is 3.4%, the “IgG1 MCF” value stood at 0.7 MCF, the “MHM5 (anti-class I MHC) % Pos” value stood at 100% and the “MHM5 (anti-class I MHC) MCF” value stood at 165 MCF. Also, in the assay on HIV-1RF [2] (treated Jurkat cells, no virus), the “MHM33 (anti-class II MHC) % Pos” value is recorded as 3.3% and the “MHM33 (anti-class II MHC) MCF” value came out at 0.7 MCF. In addition, the “Syncytium formation on exposure to free virus” value with HIV-1RF [3] is “no syncytium formation”.

The values above are taken from patent US7589080B2, “β-cyclodextrin compositions, and use to prevent transmission of sexually transmitted diseases” (priority 2000, dated 2009).
